Like-named read-outs stand apart in the source and are kept apart here.
Columns and labels:
[1] = target: T1, human GABAA α5β3γ2s receptor (Homo sapiens, UniProt P18507+P31644); assay: Assay A: in vitro inhibition of 3H-flumazenil binding, HEK cells expressing the human GABAA α5β3γ2s receptor
T1 sequence (P18507 1-475): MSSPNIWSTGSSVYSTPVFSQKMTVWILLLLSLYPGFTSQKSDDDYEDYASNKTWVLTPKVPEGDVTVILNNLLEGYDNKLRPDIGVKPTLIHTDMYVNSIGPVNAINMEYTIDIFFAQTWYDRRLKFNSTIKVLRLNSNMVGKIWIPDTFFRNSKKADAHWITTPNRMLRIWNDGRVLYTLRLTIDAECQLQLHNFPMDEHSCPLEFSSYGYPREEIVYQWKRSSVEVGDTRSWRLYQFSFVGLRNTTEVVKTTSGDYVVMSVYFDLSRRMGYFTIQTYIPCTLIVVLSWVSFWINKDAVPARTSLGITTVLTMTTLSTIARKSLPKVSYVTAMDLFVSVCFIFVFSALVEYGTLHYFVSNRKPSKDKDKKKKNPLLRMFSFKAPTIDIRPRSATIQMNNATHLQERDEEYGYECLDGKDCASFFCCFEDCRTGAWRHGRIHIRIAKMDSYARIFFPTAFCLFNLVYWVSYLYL
T1 sequence (P31644 1-462): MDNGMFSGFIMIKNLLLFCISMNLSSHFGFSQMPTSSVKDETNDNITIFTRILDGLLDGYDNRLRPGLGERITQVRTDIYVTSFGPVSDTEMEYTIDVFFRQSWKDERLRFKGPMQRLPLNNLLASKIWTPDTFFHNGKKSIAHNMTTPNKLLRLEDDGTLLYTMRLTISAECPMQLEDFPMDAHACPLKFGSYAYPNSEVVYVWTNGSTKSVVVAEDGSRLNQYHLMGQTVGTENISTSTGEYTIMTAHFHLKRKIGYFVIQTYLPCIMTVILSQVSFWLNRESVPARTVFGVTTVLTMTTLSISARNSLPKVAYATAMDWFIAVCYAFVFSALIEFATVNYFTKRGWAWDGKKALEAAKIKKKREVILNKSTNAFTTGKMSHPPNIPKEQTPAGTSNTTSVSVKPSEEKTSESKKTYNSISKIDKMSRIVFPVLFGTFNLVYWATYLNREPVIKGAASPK
Description: Cell Cultures and Membrane Preparation
HEK-293 cell lines with stable expression of recombinant human GABAA α5ß3 γ2s receptors (plasmid H46/E9/B10) are seeded in T175 polystyrene flasks or roller bottles (1700 cm^2, Fisher Scientific CCI-431191), and cultured (37° C., 5% CO2) in Dulbecco's Modified Eagle Medium (DMEM) with GlutaMAX™ supplemented with 10% fetal bovine serum and one or both of the following antibiotics: hygromycin B ([…]; γ2 subunit) or G418 (0.5 mg/ml; […]).
When the cultures reach confluency, the DMEM is removed and the cells are washed (10 ml for T175 flasks; 50 ml for roller bottles) once in Dulbecco's Phosphate Buffered Saline (DPBS). Following addition of DPBS to the cultures (10 ml for T175 flasks; 100 ml for roller bottles) for approximately 5 min cells are easily detached from the surface by shaking or tapping the flask gently. The cell suspension is transferred to Falcon tubes and centrifuged at 23,500×g for 10 min at 2° C. The pellet is washed once in 15 ml Tris-citrate buffer (50 mM, pH 7.1) using an Ultra-Turrax homogenizer and centrifuged at 2° C. for 10 min at 27,000×g. The washed pellet is re-suspended in 15 ml Tris-citrate buffer and frozen at −80° C. until the day of the binding experiment.
On the day of the experiment the cell membrane preparation is thawed and centrifuged at 2° C. for 10 min at 27,000×g. The pellet is re-suspended, using an Ultra-Turrax homogenizer in Tris-citrate buffer, to 15-50 µg protein per assay and then used for binding assays.
Non-specific binding is determined using clonazepam ([…]).
All dilutions of test compounds and incubation of assay are performed in glass vials/96-vial plates. […] Compounds are dissolved in 100% DMSO (10 mM stock), diluted in 48% ethanol-water, and tested in triplicate in serial 1:3 or 1:10 dilutions. When screening large numbers of compounds only one concentration of each compound is tested in single wells. Reference compounds are not included routinely, but for each experiment performed total and nonspecific binding is compared to data obtained during validation of the assay.
Binding is either terminated by rapid filtration onto
1) Whatman GF/C glass fibre filters using a Brandel Cell harvester, followed by 5 washes with 1 ml ice-cold buffer or onto 2) UniFilter GF/C glass fibre filter plates using a Tomtec cell harvester, followed by washing with approximately 5 ml ice-cold buffer.
The amount of radioactivity on the filters is determined by conventional liquid scintillation counting using a
1) Tri-Garb™ counter (PerkinElmer Life and Analytical Sciences) for separate large filters or
2) Topcount™ counter (PerkinElmer Life and Analytical Sciences) for 96-well filter plates.
Specific binding is total binding minus non-specific binding.
The IC50 value for a test compound is determined based on the equation: […]
where B is the binding in percentage of total specific binding; C is the concentration of test compound; and n is the Hill coefficient. For screening purposes n is set to 1. The IC50 value is calculated from the concentration response curves by the non-linear regression method using the curve-fitting program GraphPad Prism.
The Ki value for a test compound can be calculated from the IC50 value using the equation by Cheng and Prusoff: […]

α5ß2 γ2 GABAA Receptor = target: T2, α5ß2 γ2 GABAA Receptor (Homo sapiens, UniProt P18507+P31644); assay: Assay B: in vitro evaluation of modulation of α5ß2γ2 GABAA receptor, two-electrode voltage clamp in oocytes; assay type: cell-based; settings: for EC50: co-application with 0.5 μM GABA, oocytes, read-out: Assay B: GABAA α 5 β 3 γ 2 EC50
T2 sequence (P31644 32-462): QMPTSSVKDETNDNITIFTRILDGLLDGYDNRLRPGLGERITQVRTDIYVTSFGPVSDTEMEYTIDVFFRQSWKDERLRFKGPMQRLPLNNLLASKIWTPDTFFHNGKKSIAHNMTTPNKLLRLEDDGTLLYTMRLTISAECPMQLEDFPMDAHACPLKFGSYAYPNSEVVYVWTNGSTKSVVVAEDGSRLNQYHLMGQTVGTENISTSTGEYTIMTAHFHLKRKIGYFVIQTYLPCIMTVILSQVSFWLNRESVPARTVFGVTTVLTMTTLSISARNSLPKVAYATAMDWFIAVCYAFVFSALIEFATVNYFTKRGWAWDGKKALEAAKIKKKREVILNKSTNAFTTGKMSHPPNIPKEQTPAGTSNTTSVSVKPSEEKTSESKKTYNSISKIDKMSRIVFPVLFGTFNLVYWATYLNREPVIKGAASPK
T2 sequence (P18507 40-376 limits assumed): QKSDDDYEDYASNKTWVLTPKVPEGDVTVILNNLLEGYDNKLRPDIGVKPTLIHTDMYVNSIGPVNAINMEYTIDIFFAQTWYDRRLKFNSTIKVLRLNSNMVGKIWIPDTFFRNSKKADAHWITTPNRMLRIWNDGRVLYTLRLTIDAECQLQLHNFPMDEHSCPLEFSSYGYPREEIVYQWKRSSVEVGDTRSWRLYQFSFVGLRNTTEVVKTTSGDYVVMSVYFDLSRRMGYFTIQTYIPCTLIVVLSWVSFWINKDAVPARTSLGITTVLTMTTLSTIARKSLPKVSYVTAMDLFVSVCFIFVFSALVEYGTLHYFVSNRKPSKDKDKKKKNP
Description: Assay B: In Vitro Evaluation of Modulation of α5ß2 γ2 GABAA Receptor.
Modulatory efficacy of compounds of formular (I) is determined electrophysiological recordings in oocytes using the two-electrode voltage clamp (TEVC) technique. Oocytes are injected with cRNA for human GABAA receptor subunits α5, ß2 and γ2 in a 3:1:3 ratio and modulatory efficacy is evaluated by co-applications with a submaximal EC5-20 GABA concentration (0.5 μM) termed GABA control. As a standard, the compounds are tested in five concentrations (3.16, 0.316, 0.0316, 0.00316 and 0.000316 μM) on each oocyte starting with the lowest concentration. Background subtracted peak current amplitudes are normalized to the respective GABAcontrol current, converted to % change and depicted +/−S.E.M. as a function of increasing compound concentrations. Plotted datapoints are fitted to the empirical Hill equation using non-linear regression. 95% confidence intervals for maximal efficacy (Bottom) and potency (Log EC50) are derived from this fitting routine.

[2] = read-out: Assay A: GABAA α 5 β 3 γ 2s Ki
[3] = comparison compounds of WO 2020/016433, read-out: Assay A: GABAA α5 β3 γ2S Ki

| SMILES | Ki [1, 2] [nM] | Assay B: GABAA α 5 β 3 γ 2 Emax vs GABA (α5ß2 γ2 GABAA Receptor) [%] | EC50 (α5ß2 γ2 GABAA Receptor) [nM] | Ki ([1]; compounds of the present invention, read-out: Assay A: GABAA α5 β3 γ2S Ki) [nM] | Ki [1, 3] [nM] |
| --- | --- | --- | --- | --- | --- |
| CSc1ccc(-c2ccc(OCc3c(C)nnn3-c3ccc(C(F)F)cn3)nn2)cn1 [Example 10] | 9 | -8 | 75 | – | – |
| Cc1nnn(-c2ccc(C(F)F)cn2)c1COc1ccc(-c2cccc(C#N)n2)nn1 [Example 11] | 9 | -13.5 | 37.5 | – | – |
| Cc1nnn(-c2ccc(C(F)F)cn2)c1COc1ccc(-c2cncc(C#N)c2)nn1 [Example 13] | 6 | -9 | 44.5 | – | – |
| CCn1cc(-c2ccc(OCc3c(C)nnn3-c3ccc(C(F)F)cn3)nn2)ccc1=O [Example 21] | 10 | -4 | – | – | – |
| CNc1cc(-c2ccc(OCc3c(-c4ccc(C(F)F)cn4)nnn3C)nn2)ccn1 [Example 26] | 14 | -5.3 | – | – | – |
| Cn1nnc(-c2ccc(C(F)F)cn2)c1COc1ccc(-c2cncc(C#N)c2)nn1 [Example 27] | 12 | -6.7 | – | – | – |
| Cn1ccc(-c2ccc(OCc3c(-c4ccc(C(F)F)cn4)nnn3C)nn2)n1 [Example 34] | 25 | -17 | 4.2 | – | – |
| Cc1nnn(-c2ccc(C(F)F)cn2)c1COc1ccc(-n2cnc(C(N)=O)c2)nn1 [Example 36] | > 8890 | – | – | – | – |
| CCc1cn(-c2ccc(OCc3c(-c4ccc(C(F)F)cn4)nnn3C)nn2)nc1N [Example 40] | 8 | -10.3 | 32.7 | – | – |
| CNc1cc(C)nn1-c1ccc(OCc2c(-c3ccc(C(F)F)cn3)nnn2C)nn1 [Example 41] | 2 | -21.3 | 43.7 | – | – |
| Cc1nnn(-c2ccc(C(F)F)cn2)c1COc1ccc(-n2ccnn2)nn1 [Example 44] | 14 | -17.7 | 14.1 | – | – |
| CCc1nccn1-c1ccc(OCc2c(-c3ccc(C(F)F)cn3)nnn2C)nn1 [Example 45] | 150 | -17.3 | 23 | – | – |
| Cn1nnc(-c2ccc(C(F)F)cn2)c1COc1ccc(-n2ccnc2C#N)nn1 [Example 46] | 220 | -26.3 | 10.4 | – | – |
| Cc1nccn1-c1ccc(OCc2c(-c3ccc(C(F)F)cn3)nnn2C)nn1 [Example 47] | 120 | -7 | 15.5 | – | – |
| Cn1nnc(-c2ccc(C(F)F)cn2)c1COc1ccc(-n2cc(Cl)cn2)nn1 [Example 51, 3-(4-chloro-1H-pyrazol-1-yl)-6-({4-[5-(difluoromethyl)pyridin-2-yl]-1-methyl-1H-1,2,3-triazol-5-yl}methoxy)pyridazine] | 15 | -27.3 | 29 | – | – |
| Cc1nnn(-c2ccc(C(F)F)cn2)c1COc1ccc(-n2cc(F)cn2)nn1 [Example 54, 3-({1-[5-(difluoromethyl)pyridin-2-yl]-4-methyl-1H-1,2,3-triazol-5-yl}methoxy)-6-(4-fluoro-1H-pyrazol-1-yl)pyridazine] | 14 | -34.7 | 15 | – | – |
| Cc1nnn(-c2ccc(C(F)F)cn2)c1COc1ccc(-n2cncn2)nn1 [Example 55] | 32 | -20.3 | 24.3 | 0.032 | – |
| Cc1nnn(-c2ccc(C(F)F)cc2)c1COc1ccc(-n2cnc(C#N)c2)nn1 [reference compound] | – | – | – | – | 0.126 |
| Cc1nnn(-c2ccc(C(F)F)cc2)c1COc1ccc(-c2cnccn2)nn1 [reference compound] | – | – | – | – | 0.249 |
| Cc1nnn(-c2ccc(C(F)F)cc2)c1COc1ccc(-c2ccn[nH]2)nn1 [reference compound] | – | – | – | – | 0.12 |
| Cc1nnn(-c2ccc(C(F)F)cc2)c1COc1ccc(-n2cncn2)nn1 [reference compound] | – | – | – | – | 0.546 |

From patent US20230286946A1, “DIFLUOROMETHYL-PYRIDIN-2-YL TRIAZOLES” (Boehringer Ingelheim International GmbH, priority 2020, published 2023)
